From US9775883B2, “Methods, systems, and compositions for promoting recovery of peripheral neuropathy” (HENRY FORD HEALTH SYSTEM, priority 2011, dated 2017) come the findings set out here.

A short description of this series: Effect of TB4 on bodyweight of db/db mice. Particulars: for Weight: db/db mice, mean ± SE. The format is in vivo, mouse. As for the experimental part: All experimental procedures were carried out in accordance with NIH Guide for the Care and Use of Laboratory Animals and approved by the institutional Animal Care and Use Committee of Henry Ford Hospital. Male BKS.Cg-m+/+Lepr^db/J(db/db) mice (Jackson Laboratories, Bar Harbor, Me.) aged 20 weeks were used. Age-matched heterozygotes mice (db/m), a non-penetrant genotype (Jackson Laboratories), were used as the control animals.
db/db mice at age 20 weeks were treated with Tβ4 at a dose of 6 mg/kg or 24 mg/kg (RegeneRx, Inc, intraperitoneal injection, i.p.), every 3 days for 4 weeks (n=10/group). db/db mice (n=10/group) at the same age treated with same volume of saline were used as a control group. Age-matched db/m mice treated with Tβ4 (6 mg/kg i.p. every 3 days, n=10/group) or saline (n=10/group) were used as additional control groups. All mice were sacrificed 8 weeks after the initial treatment. Doses of Tβ4 were selected based on published studies^13.

Molecules are shown by their SMILES.

Turning to `CC[C@H](C)[C@H](NC(=O)[C@H](CCC(=O)O)NC(=O)[C@H](C)NC(=O)[C@H](CCSC)NC(=O)[C@H](CC(=O)O)NC(=O)[C@@H]1CCCN1C(=O)[C@H](CCCCN)NC(=O)[C@H](CC(=O)O)NC(=O)[C@H](CO)NC(C)=O)C(=O)N[C@@H](CCC(=O)O)C(=O)N[C@@H](CCCCN)C(=O)N[C@@H](Cc1ccccc1)C(=O)N[C@@H](CC(=O)O)C(=O)N[C@@H](CCCCN)C(=O)N[C@@H](CO)C(=O)N[C@@H](CCCCN)C(=O)N[C@@H](CC(C)C)C(=O)N[C@@H](CCCCN)C(=O)N[C@@H](CCCCN)C(=O)N[C@H](C(=O)N[C@@H](CCC(=O)O)C(=O)N[C@H](C(=O)N[C@@H](CCC(N)=O)C(=O)N[C@@H](CCC(=O)O)C(=O)N[C@@H](CCCCN)C(=O)N[C@@H](CC(N)=O)C(=O)N1CCC[C@H]1C(=O)N[C@@H](CC(C)C)C(=O)N1CCC[C@H]1C(=O)N[C@@H](CO)C(=O)N[C@@H](CCCCN)C(=O)N[C@@H](CCC(=O)O)C(=O)N[C@H](C(=O)N[C@H](C(=O)N[C@@H](CCC(=O)O)C(=O)N[C@@H](CCC(N)=O)C(=O)N[C@@H](CCC(=O)O)C(=O)N[C@@H](CCCCN)C(=O)N[C@@H](CCC(N)=O)C(=O)N[C@@H](C)C(=O)NCC(=O)N[C@@H](CCC(=O)O)C(=O)N[C@@H](CO)C(=O)O)[C@@H](C)CC)[C@@H](C)O)[C@@H](C)O)[C@@H](C)O` [Tβ4, thymosin beta 4], the Weight by setting is: (TB4 6 mg/kg i.p. every 3 days for 4 weeks, 0 w (before the treatment)) 59.5 ± 0.9 g; (TB4 6 mg/kg, 2 w) 57.1 ± 1.1 g; (TB4 6 mg/kg, 4 w) 56.2 ± 1.2 g; (TB4 6 mg/kg, 6 w) 53.7 ± 1.5 g; (TB4 6 mg/kg, 8 w) 53.0 ± 1.7 g; (TB4 24 mg/kg i.p. every 3 days for 4 weeks, 0 w (before the treatment)) 58.9 ± 1.1 g. The Weight is reported as 58.1 ± 1.2 g (TB4 24 mg/kg, 2 w); 55.7 ± 1.5 g (TB4 24 mg/kg, 4 w); 56.0 ± 1.4 g (TB4 24 mg/kg, 6 w); 54.8 ± 1.6 g (TB4 24 mg/kg, 8 w). Also, the animal body weight entry (db/db mouse treated with Tβ4 (Table 1)) is “did not significantly alter”.
